This is an account of results in patent US20250257041A1, “INDUCERS OF INTEGRATED STRESS RESPONSE TO TREAT CANCER” (The Board of Regents of The University of Texas System, priority 2022, published 2025).

Read-outs that look alike come from different tables or passages of the source.

For the test, the system named is HCT116 WT. Briefly: Proliferation of HCT116 colorectal cell line, Cell TiterGlo. Format: cell-based, human. Here is the method:
Briefly, compounds were tested for their effect on proliferation of HCT116 colorectal cell lines using Cell TiterGlo (Promega). Each compound was tested in a 10-point dose response experiment in triplicate. Multiple values in the column titled HCT116 WT reflect separate independent experiments. The three columns titled “HCT116 WT (repeat)”, “HCT116-CGN2KO” and “HCT116 WT+ISRIB” provide data for selected compounds that were tested simultaneously under three conditions. The HCT116 WT column lists IC50 against the wild type HCT116 colorectal cancer cell line. The HCT116-CGN2KO lists IC50 data for cells in which one component of the integrated stress response, GCN2, has been knocked out using CRISPR technology.

Where [1] appears, read: wild type HCT116, 10-point dose response in triplicate, multiple values = separate independent experiments.
The mark [2] stands for this setting: Homo sapiens, HCT-116, wild type HCT116, 10-point dose response in triplicate, multiple values = separate independent experiments, read-out: HCT116 IC50 (uM) HCT116 WT.

On to `Cn1nc(-c2ccc(NC(=O)C3CCCO3)cc2)cc1NC(=O)c1ccccc1` (single isomer, unassigned) [SW394516 (isomer 1)], for which the “HCT116 IC50 (uM) HCT116 WT” value under setting [1] was “inactive”.
In the case of `Cn1nc(-c2ccc(NC(=O)C3CCCO3)cc2)cc1NC(=O)c1ccccc1` (single isomer, unassigned) [SW394516 (isomer 2)], under setting [2], the IC50 (commonly the concentration that inhibits the measured activity by half) turned out to be 0.77 µM.
With `Cn1nc(-c2ccc(NC(=O)c3ccccc3Cl)cc2)cc1NC(=O)C1CCCC(NC(=O)OC(C)(C)C)C1` (single isomer, unassigned) [SW394868-isomer 2], the IC50 under setting [2] amounted to 0.12 µM.
On the same count and under the same terms, then `Cn1nc(-c2ccc(NC(=O)c3ccccc3Cl)cc2)cc1NC(=O)[C@H]1CCC[C@@H](N)C1` (single isomer, unassigned) [SW394869-isomer 1], with 0.04 µM; and `Cn1nc(-c2ccc(NC(=O)c3ccccc3)cc2)cc1NC(=O)c1ccccc1` [SW106593, N-(4-(5-Benzamido-1-methyl-1H-pyrazol-3-yl)phenyl)benzamide], with 0.22 µM; and `COc1ccc(C(=O)Nc2cc(-c3ccc(NC(=O)OC(C)(C)C)cc3)nn2C)cc1` [SW388709, tert-Butyl-(4-(5-(4-methoxybenzamido)-1-methyl-1H-pyrazol-3-yl)phenyl)carbamate], with 16 µM.
For the molecule `COc1cccc(C(=O)Nc2ccc(-c3cc(NC(=O)c4ccccc4)n(C)n3)cc2)c1` [SW388711, N-(4-(5-Benzamido-1-methyl-1H-pyrazol-3-yl)phenyl)-3-methoxybenzamide], the IC50 under setting [2] was determined as 1.09 µM.
Consider `COc1cccc(C(=O)Nc2cc(-c3ccc(NC(=O)OC(C)(C)C)cc3)nn2C)c1` [SW388712, tert-Butyl (4-(5-(3-methoxybenzamido)-1-methyl-1H-pyrazol-3-yl)phenyl)carbamate], for which, under setting [2], the IC50 worked out at 0.69 µM.
As for `Cn1nc(-c2ccc(NC(=O)OC(C)(C)C)cc2)cc1NC(=O)c1ccccc1` [SW388713, tert-Butyl (4-(5-benzamido-1-methyl-1H-pyrazol-3-yl)phenyl)carbamate], the 50% inhibitory concentration (IC50) under setting [2] amounted to 1.1 µM.
Still for that read-out and setting: then `Cn1nc(-c2ccc(N)cc2)cc1NC(=O)c1ccccc1` [SW388714, N-(3-(4-Aminophenyl)-1-methyl-1H-pyrazol-5-yl)benzamide], with 16 µM.
As for `COc1cccc(C(=O)Nc2cc(-c3ccc(N)cc3)nn2C)c1` [SW388715, N-(3-(4-Aminophenyl)-1-methyl-1H-pyrazol-5-yl)-3-methoxybenzamide], under setting [1], the “HCT116 IC50 (uM) HCT116 WT” value is “inactive”.
As for `COc1ccc(C(=O)Nc2ccc(-c3cc(NC(=O)c4ccccc4)n(C)n3)cc2)cc1` [SW388716, N-(4-(5-Benzamido-1-methyl-1H-pyrazol-3-yl)phenyl)-4-methoxybenzamide], under setting [2], the IC50 was determined as 19 µM.
Regarding `COc1ccc(C(=O)Nc2cc(-c3ccc(N)cc3)nn2C)cc1` [SW388717, N-(3-(4-Aminophenyl)-1-methyl-1H-pyrazol-5-yl)-4-methoxybenzamide], under setting [1], the “HCT116 IC50 (uM) HCT116 WT” value is “inactive”.
With `COc1ccc(C(=O)Nc2cc(-c3ccc(NC(=O)c4ccccc4)cc3)nn2C)cc1` [SW388718, N-(3-(4-Benzamidophenyl)-1-methyl-1H-pyrazol-5-yl)-4-methoxybenzamide], under setting [2], the IC50 was found to be 2.03 µM.
As for `CSc1cccc(C(=O)Nc2cc(-c3ccc(NC(=O)c4ccccc4)cc3)nn2C)c1` [SW389160, N-(3-(4-Benzamidophenyl)-1-methyl-1H-pyrazol-5-yl)-3-(methylthio)benzamide], the IC50 runs as follows: (Homo sapiens, HCT-116, read-out: HCT116 IC50 (uM) HCT116 WT) 0.226 µM; (Homo sapiens, HCT-116, read-out: HCT116 IC50 (uM) HCT116 WT (repeat)) 0.29 µM; (read-out: HCT116 IC50 (uM) HCT116 WT + ISRIB, wild type HCT116, compound plus 10 nM of ISRIB) 2.48 µM.
As for `C#CCOc1ccccc1C(=O)Nc1ccc(-c2cc(NC(=O)c3cccc(N=[N+]=[N-])c3)n(C)n2)cc1` [SW393066, N-(4-(5-(3-Azidobenzamido)-1-methyl-1H-pyrazol-3-yl)phenyl)-2-(prop-2-yn-1-yloxy)benza-mide], the IC50 by setting is: (wild type HCT116, 10-point dose response in triplicate, multiple values = separate independent experiments, read-out: HCT116 IC50 (uM) HCT116 WT) 9.4 µM; (wild type HCT116, tested simultaneously with GCN2KO and +ISRIB, read-out: HCT116 IC50 (uM) HCT116 WT (repeat)) 7.18 µM.
For the molecule `C#Cc1cccc(C(=O)Nc2cc(-c3ccc(NC(=O)c4ccccc4N=[N+]=[N-])cc3)nn2C)c1` [SW393185, 2-Azido-N-(4-(5-(3-ethynylbenzamido)-1-methyl-1H-pyrazol-3-yl)phenyl)benzamide], the IC50 under setting [2] was 0.13 µM.
The same measure, in the same setting: the result for `C#CCOc1cccc(C(=O)Nc2cc(-c3ccc(NC(=O)c4ccccc4N=[N+]=[N-])cc3)nn2C)c1` [SW393186, 2-Azido-N-(4-(1-methyl-5-(3-(prop-2-yn-1-yloxy)benzamido)-1H-pyrazol-3-yl)phenyl)benza-mide] reads 0.1 µM; that for `Cn1nc(-c2ccc(NC(=O)c3ccccc3Cl)cc2)cc1NC(=O)c1cccc(C(=O)c2ccccc2)c1` [SW393187, N-(4-(5-(3-benzoylbenzamido)-1-methyl-1H-pyrazol-3-yl)phenyl)-2-chlorobenzamide], 0.14 µM.
As to `Cn1nc(-c2ccc(NC(=O)c3ccccc3Cl)cc2)cc1NC(=O)c1ccc(C(=O)c2ccccc2)cc1` [SW393188, N-(4-(5-(4-benzoylbenzamido)-1-methyl-1H-pyrazol-3-yl)phenyl)-2-chlorobenzamide], the IC50 under setting [2] worked out at 0.6 µM.
Turning to `C#CCOCc1ccccc1C(=O)Nc1ccc(-c2cc(NC(=O)c3ccccc3)n(C)n2)cc1` [SW393189, N-(4-(5-benzamido-1-methyl-1H-pyrazol-3-yl)phenyl)-2-((prop-2-yn-1-yloxy)methyl)benzamide], under setting [2], the IC50 came to 0.06 µM.
`C#CCOc1cccc(C(=O)Nc2cc(-c3ccc(NC(=O)c4cc(N=[N+]=[N-])ccc4Cl)cc3)nn2C)c1` [SW393213, 5-Azido-2-chloro-N-(4-(1-methyl-5-(3-(prop-2-yn-1-yloxy)benzamido)-1H-pyrazol-3-yl)phe-nyl)benzamide]: the IC50 under setting [2] amounted to 0.37 µM.
Still for that read-out and setting: then `CCn1nc(-c2ccc(NC(=O)c3ccccc3Cl)cc2)cc1NC(=O)c1ccccc1` [SW393214, N-(4-(5-Benzamido-1-ethyl-1H-pyrazol-3-yl)phenyl)-2-chlorobenzamide], with 0.57 µM; and `O=C(Nc1cc(-c2ccc(NC(=O)c3ccccc3Cl)cc2)nn1Cc1ccccc1)c1ccccc1` [SW393215, N-(4-(5-Benzamido-1-benzyl-1H-pyrazol-3-yl)phenyl)-2-chlorobenzamide], with 0.62 µM; and `Cc1c(-c2ccc(NC(=O)c3ccccc3Cl)cc2)nn(C)c1NC(=O)c1ccccc1` [SW393216, N-(4-(5-Benzamido-1,4-dimethyl-1H-pyrazol-3-yl)phenyl)-2-chlorobenzamide], with 0.07 µM.
Regarding `Cc1ccccc1C(=O)Nc1cc(-c2ccc(NC(=O)c3ccccc3Cl)cc2)nn1C` [SW393217, 2-chloro-N-(4-(1-methyl-5-(2-methylbenzamido)-1H-pyrazol-3-yl)phenyl)benzamide], the IC50 under setting [2] came to 0.03 µM.
The same measure, in the same setting: the result for `Cn1nc(-c2ccc(NC(=O)c3ccccc3Cl)cc2)cc1NC(=O)c1ccccc1Br` [SW393218, 2-bromo-N-(3-(4-(2-chlorobenzamido)phenyl)-1-methyl-1H-pyrazol-5-yl)benzamide] reads 0.02 µM; that for `Cn1nc(-c2ccc(NC(=O)c3ccccc3F)cc2)cc1NC(=O)c1ccccc1` [SW393241, N-(4-(5-Benzamido-1-methyl-1H-pyrazol-3-yl)phenyl)-2-fluorobenzamide], 0.04 µM; that for `C#Cc1cccc(C(=O)Nc2cc(-c3ccc(NC(=O)c4ccc(C5(C(F)(F)F)N=N5)cc4)cc3)nn2C)c1` [SW393242, 3-Ethynyl-N-(1-methyl-3-(4-(4-(3-(trifluoromethyl)-3H-diazirin-3-yl)benzamido)phenyl)-1H-pyrazol-5-yl)benzamide], 1.35 µM.
